Results published in ChEMBL document CHEMBL4000238, “Discovery of core-structurally novel PTP1B inhibitors with specific selectivity containing oxindole-fused spirotetrahydrofurochroman by one-pot reaction” (Bioorg Med Chem Lett, 2017).

Tests used:
[1] = target: T1, Tyrosine-protein phosphatase non-receptor type 2 (Homo sapiens) (UniProt P17706); assay: Inhibition of GST-tagged human […] expressed in Escherichia coli at 20 ug/ml using pNPP as substrate relative to control
T1 sequence (whole entry): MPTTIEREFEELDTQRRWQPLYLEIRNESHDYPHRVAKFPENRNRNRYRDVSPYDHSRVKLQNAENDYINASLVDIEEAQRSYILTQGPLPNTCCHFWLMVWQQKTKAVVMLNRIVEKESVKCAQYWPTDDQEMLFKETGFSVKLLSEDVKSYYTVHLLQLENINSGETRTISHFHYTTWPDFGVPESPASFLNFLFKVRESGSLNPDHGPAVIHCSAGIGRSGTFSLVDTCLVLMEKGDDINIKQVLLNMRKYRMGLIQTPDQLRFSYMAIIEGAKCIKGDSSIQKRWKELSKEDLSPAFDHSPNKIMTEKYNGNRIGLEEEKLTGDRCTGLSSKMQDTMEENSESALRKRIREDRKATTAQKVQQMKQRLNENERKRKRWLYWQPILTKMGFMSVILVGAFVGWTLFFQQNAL

[2] = target: T2, Tyrosine-protein phosphatase non-receptor type 6 (Homo sapiens, UniProt P29350); assay: Inhibition of GST-tagged human SHP1 expressed in Escherichia coli at 20 ug/ml using pNPP as substrate relative to control
[3] = target: T3, Tyrosine-protein phosphatase non-receptor type 2 (Homo sapiens, UniProt P17706); assay: Inhibition of GST-tagged human […] expressed in Escherichia coli using pNPP as substrate
T3 sequence (P17706 whole entry): T1 sequence (whole entry)

[4] = target: Receptor-type tyrosine-protein phosphatase F (Homo sapiens) (UniProt P10586); assay: Inhibition of GST-tagged human LAR expressed in Escherichia coli at 20 ug/ml using pNPP as substrate relative to control
[5] = target: T2, Tyrosine-protein phosphatase non-receptor type 6; assay: Inhibition of GST-tagged human SHP1 expressed in Escherichia coli using pNPP as substrate
[6] = target: T4, Tyrosine-protein phosphatase non-receptor type 1 (Homo sapiens, UniProt P18031); assay: Inhibition of recombinant human PTP1B catalytic domain expressed in Escherichia coli BL21-CodonPlus (DE3) using pNPP as substrate measured for 2 mins
T4 sequence (P18031 whole entry): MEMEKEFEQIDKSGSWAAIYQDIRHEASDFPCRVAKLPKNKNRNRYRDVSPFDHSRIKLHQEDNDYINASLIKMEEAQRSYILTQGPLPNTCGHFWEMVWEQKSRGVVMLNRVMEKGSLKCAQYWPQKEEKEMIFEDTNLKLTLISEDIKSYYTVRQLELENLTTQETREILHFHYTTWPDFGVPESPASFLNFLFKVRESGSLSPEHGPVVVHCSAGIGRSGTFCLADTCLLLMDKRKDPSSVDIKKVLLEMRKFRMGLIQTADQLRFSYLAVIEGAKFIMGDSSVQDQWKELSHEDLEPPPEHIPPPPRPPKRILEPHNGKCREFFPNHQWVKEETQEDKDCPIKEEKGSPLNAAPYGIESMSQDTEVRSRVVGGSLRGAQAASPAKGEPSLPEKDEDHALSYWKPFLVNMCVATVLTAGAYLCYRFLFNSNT

Chain of Receptor-type tyrosine-protein phosphatase F (Homo sapiens) (P10586 whole entry): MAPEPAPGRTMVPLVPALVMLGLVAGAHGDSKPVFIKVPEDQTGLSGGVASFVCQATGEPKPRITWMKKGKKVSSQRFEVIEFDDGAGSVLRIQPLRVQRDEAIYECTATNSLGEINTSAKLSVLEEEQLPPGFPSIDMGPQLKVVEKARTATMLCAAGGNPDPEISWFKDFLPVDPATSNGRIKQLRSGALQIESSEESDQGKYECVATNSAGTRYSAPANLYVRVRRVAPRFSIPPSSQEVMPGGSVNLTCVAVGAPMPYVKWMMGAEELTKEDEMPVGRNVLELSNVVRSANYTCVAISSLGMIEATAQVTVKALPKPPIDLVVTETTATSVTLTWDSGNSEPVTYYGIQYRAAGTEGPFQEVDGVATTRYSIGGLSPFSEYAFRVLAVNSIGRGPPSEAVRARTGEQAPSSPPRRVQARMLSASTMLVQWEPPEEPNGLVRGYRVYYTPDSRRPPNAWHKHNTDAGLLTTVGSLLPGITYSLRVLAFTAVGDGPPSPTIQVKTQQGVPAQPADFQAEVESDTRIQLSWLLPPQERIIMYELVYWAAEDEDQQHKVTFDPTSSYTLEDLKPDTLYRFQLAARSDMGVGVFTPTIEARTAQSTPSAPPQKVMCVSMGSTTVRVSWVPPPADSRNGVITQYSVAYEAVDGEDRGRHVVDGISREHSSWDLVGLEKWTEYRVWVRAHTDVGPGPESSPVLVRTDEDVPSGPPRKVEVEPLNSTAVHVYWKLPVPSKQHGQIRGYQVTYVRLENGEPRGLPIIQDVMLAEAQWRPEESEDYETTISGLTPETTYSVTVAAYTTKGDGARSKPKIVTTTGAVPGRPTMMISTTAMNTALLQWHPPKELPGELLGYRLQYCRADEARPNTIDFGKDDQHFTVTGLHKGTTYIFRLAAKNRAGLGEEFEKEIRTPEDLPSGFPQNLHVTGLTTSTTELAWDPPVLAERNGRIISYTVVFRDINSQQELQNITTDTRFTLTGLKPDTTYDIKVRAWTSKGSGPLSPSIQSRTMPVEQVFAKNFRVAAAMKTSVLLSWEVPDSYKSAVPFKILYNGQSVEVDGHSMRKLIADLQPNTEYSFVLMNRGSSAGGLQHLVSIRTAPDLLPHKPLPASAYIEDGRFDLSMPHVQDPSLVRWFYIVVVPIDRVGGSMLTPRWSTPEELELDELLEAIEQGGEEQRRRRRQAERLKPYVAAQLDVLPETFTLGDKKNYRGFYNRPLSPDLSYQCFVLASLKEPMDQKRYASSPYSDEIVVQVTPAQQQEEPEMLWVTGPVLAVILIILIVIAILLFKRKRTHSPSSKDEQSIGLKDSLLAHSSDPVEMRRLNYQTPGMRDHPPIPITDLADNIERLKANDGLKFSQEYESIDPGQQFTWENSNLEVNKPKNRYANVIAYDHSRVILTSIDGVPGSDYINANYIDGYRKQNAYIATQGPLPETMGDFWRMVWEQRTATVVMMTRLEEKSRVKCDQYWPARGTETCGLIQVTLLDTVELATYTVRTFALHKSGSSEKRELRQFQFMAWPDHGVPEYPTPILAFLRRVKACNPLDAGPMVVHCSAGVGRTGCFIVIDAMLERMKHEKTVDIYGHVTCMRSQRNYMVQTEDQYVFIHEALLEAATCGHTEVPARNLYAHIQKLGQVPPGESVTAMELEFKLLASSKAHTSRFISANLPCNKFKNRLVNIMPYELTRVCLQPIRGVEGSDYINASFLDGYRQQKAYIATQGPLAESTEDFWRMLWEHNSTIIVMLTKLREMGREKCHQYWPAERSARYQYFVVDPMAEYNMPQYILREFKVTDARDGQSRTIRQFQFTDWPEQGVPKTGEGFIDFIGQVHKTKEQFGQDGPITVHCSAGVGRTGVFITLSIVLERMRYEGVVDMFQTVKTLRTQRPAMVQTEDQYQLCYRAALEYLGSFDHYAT
T2 sequence (P29350 whole entry): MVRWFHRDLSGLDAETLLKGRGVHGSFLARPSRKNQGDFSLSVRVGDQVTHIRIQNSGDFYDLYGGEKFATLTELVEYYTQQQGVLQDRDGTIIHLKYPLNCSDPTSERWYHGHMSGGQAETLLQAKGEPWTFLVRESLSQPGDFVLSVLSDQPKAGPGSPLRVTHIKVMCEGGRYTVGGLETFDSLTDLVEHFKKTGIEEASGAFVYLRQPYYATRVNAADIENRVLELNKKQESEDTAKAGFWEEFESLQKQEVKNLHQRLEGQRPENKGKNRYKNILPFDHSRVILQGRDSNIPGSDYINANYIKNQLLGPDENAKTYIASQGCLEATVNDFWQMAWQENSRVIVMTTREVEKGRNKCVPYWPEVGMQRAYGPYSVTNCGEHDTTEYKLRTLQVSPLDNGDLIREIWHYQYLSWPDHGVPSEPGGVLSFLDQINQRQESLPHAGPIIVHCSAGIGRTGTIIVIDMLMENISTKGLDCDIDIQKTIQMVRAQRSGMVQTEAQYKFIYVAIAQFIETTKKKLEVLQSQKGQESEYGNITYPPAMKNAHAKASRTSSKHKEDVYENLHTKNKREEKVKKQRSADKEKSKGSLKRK

Row | SMILES | IC50 [6] [µM] | further results
1 | Cc1ccc([C@H]2[C@]34NC(=O)C[C@H]3Oc3ccc(C)cc3[C@@H]4O[C@@]23C(=O)N(Cc2ccccc2)c2ccccc23)cc1 | 4.72 | inhibition [1]: 19.4%; inhibition [2]: 96.1%; IC50 [3]: 35.8 µM; inhibition [4]: 6.72%; IC50 [5]: 10.6 µM
2 | COC(=O)C[C@H]1Oc2c(OC)cccc2[C@@H]2O[C@@]3(C(=O)N(Cc4ccccc4)c4ccccc43)[C@@H](c3ccccc3OC)[C@]12[N+](=O)[O-] | 5.83 | 
3 | COC(=O)C[C@H]1Oc2ccc(OC)cc2[C@@H]2O[C@@]3(C(=O)N(Cc4ccccc4)c4ccccc43)[C@@H](c3ccc(C)cc3)[C@]12[N+](=O)[O-] | 4.53 | inhibition [1]: 10.3%; inhibition [2]: 31.1%; inhibition [4]: 15.5%
4 | COC(=O)C[C@H]1Oc2c(OC)cccc2[C@@H]2O[C@@]3(C(=O)N(Cc4ccccc4)c4ccccc43)[C@@H](c3ccc(Br)cc3)[C@]12[N+](=O)[O-] | 5.43 | 
5 | COC(=O)/C=C/Oc1c(OC)cccc1[C@@H]1O[C@@]2(C(=O)N(Cc3ccccc3)c3ccccc32)[C@@H](c2ccc(C)cc2)[C@@H]1[N+](=O)[O-] | 6.8 | 
6 | O=C1C[C@H]2Oc3ccc(Cl)cc3[C@@H]3O[C@@]4(C(=O)N(Cc5ccccc5)c5ccccc54)[C@@H](c4ccc(Br)cc4)[C@]23N1 | 6.04 | 
7 | Cc1ccc2c(c1)[C@@H]1O[C@@]3(C(=O)N(Cc4ccccc4)c4ccccc43)[C@@H](c3ccccc3)[C@@]13NC(=O)C[C@H]3O2 | 10.3 | 
8 | COc1ccccc1[C@H]1[C@]23NC(=O)C[C@H]2Oc2c(OC)cccc2[C@@H]3O[C@@]12C(=O)N(Cc1ccccc1)c1ccccc12 | 10 | 
9 | COC(=O)/C=C/Oc1ccc(OC)cc1[C@@H]1O[C@@]2(C(=O)N(Cc3ccccc3)c3ccccc32)[C@@H](c2ccc(C)cc2)[C@@H]1[N+](=O)[O-] | 13.2 | 
10 | COc1cccc2c1O[C@@H]1CC(=O)N[C@]13[C@H]2O[C@@]1(C(=O)N(Cc2ccccc2)c2ccccc21)[C@H]3c1ccc(C)cc1 | 7.07 | 
11 | COC(=O)C[C@H]1Oc2c(OC)cccc2[C@@H]2O[C@@]3(C(=O)N(Cc4ccccc4)c4ccccc43)[C@@H](c3ccc(C)cc3)[C@]12[N+](=O)[O-] | 8.2 | 
12 | COC(=O)/C=C/Oc1ccc(OC)cc1[C@@H]1O[C@@]2(C(=O)N(Cc3ccccc3)c3ccccc32)[C@@H](c2ccc(Br)cc2)[C@@H]1[N+](=O)[O-] | 5.34 | 
13 | COC(=O)/C=C/Oc1c(OC)cccc1[C@@H]1O[C@@]2(C(=O)N(Cc3ccccc3)c3ccccc32)[C@@H](c2ccc(Br)cc2)[C@@H]1[N+](=O)[O-] | 3.89 | inhibition [1]: 38.3%; inhibition [2]: 98.8%; inhibition [4]: 18.7%; IC50 [5]: 5.29 µM
14 | COc1cccc2c1O[C@@H]1CC(=O)N[C@]13[C@H]2O[C@@]1(C(=O)N(Cc2ccccc2)c2ccccc21)[C@H]3c1ccc(Br)cc1 | 6.19 | 
15 | COC(=O)C[C@H]1Oc2ccc(Cl)cc2[C@@H]2O[C@@]3(C(=O)N(Cc4ccccc4)c4ccccc43)[C@@H](c3ccc(Br)cc3)[C@]12[N+](=O)[O-] | 4.65 | 
16 | COc1ccc2c(c1)[C@@H]1O[C@@]3(C(=O)N(Cc4ccccc4)c4ccccc43)[C@@H](c3ccc(Br)cc3)[C@@]13NC(=O)C[C@H]3O2 | 6.48 | 
17 | COC(=O)C[C@H]1Oc2ccc(OC)cc2[C@@H]2O[C@@]3(C(=O)N(Cc4ccccc4)c4ccccc43)[C@@H](c3ccc(Br)cc3)[C@]12[N+](=O)[O-] | 6.67 | 
18 | Cc1ccc([C@H]2[C@]34NC(=O)C[C@H]3Oc3ccc(Cl)cc3[C@@H]4O[C@@]23C(=O)N(Cc2ccccc2)c2ccccc23)cc1 | 5.61 | 
19 | COc1ccc2c(c1)[C@@H]1O[C@@]3(C(=O)N(Cc4ccccc4)c4ccccc43)[C@@H](c3ccc(C)cc3)[C@@]13NC(=O)C[C@H]3O2 | 7.98 | 
